Biological target: T1, human AMPA receptors
T1 construct: gene GRIA1; assay details only in supplement
Experiment: radioligand receptor binding assay (details in supplement)
Details: labelled compound; noncompetitive (perampanel derivative); subunit not told

Kd: ~15 nM
Structure (SMILES): CNc1cccc(-n2cc(-c3ncccn3)cc(-c3ccccc3C#N)c2=O)c1 [[11C]HMS011, 2-(1-(3-([^11C]methylamino)phenyl)-2-oxo-5-(pyrimidin-2-yl)-1,2-dihydropyridin-3-yl) benzonitrile]
